Source: US20150284342A1, “BIS(FLUOROALKYL)-1,4-BENZODIAZEPINONE COMPOUNDS” (BRISTOL-MYERS SQUIBB COMPANY, priority 2011, published 2015)
Where two headings read alike, the source gives them in different places.

What was measured:
Notch 3 = test: Notch-CBF1 Transactivation Assay (Notch 3); type: cell-based
Excerpt: (§1) Table 12 denotes respective DNA quantity for the transfections.
(§2) Duplicates were used for each sample.

[1] = system: TALL1 Human T-cell acute lymphoblastic leukemia; test: Human tumor xenograft model in mice: TALL1; type: in vivo; conditions: 24 mg/kg, oral, QD × 15, 10 Day-on-2 Day-off
human tumor xenografts = test: Human Tumor Xenograft Models in Mice (various tumors); type: in vivo; conditions: oral administration (PO)
[2] = High Throughput (HT) Metabolic Stability Panel, human liver microsomes; conditions: 0.5 μM compound, human liver microsomes, 10 min incubation
Experimental: (§3) Each compound was tested in duplicate.

[3] = system: MDA-MB-468 Human Breast Carcinoma; test: Human tumor xenograft model in mice: MDA-MB-468 (combination with paclitaxel); type: in vivo
Notch 1 = test: Notch-CBF1 Transactivation Assay (Notch 1); type: cell-based
Excerpt: as §1, §2

[4] = system: human breast carcinoma cell line MDA-MB-157; test: Human tumor xenograft model in mice: MDA-MB-157; type: in vivo; conditions: 24 mg/kg, oral, QD × 15, 10 Day-on-2 Day-off
[5] = High Throughput (HT) Metabolic Stability Panel, mouse liver microsomes; conditions: 0.5 μM compound, mouse liver microsomes, 10 min incubation
Experimental: as §3

[6] = system: ER receptor positive human breast carcinoma xenograft MCF7; test: Human tumor xenograft model in mice: MCF7 (combination with Tamoxifen); type: in vivo
[7] = system: human ovarian teratocarcinoma xenograft PA-1; test: Human tumor xenograft model in mice: PA-1 (combination with carboplatin); type: in vivo; conditions: carboplatin weekly, 90 mg/kg/adm
[8] = system: ALL-SIL T-cell lymphoblastic leukemia; test: Human tumor xenograft model in mice: ALL-SIL (combination with dasatinib); type: in vivo
[9] = system: human T-ALL leukemia xenografts HPB-ALL; test: Human tumor xenograft model in mice: HPB-ALL (combination with dexamethasone); type: in vivo; conditions: for Tumor Growth Delay / Tumor Growth Delay (LCK): target tumor size 3000 mg
[10] = read-out: Notch 3 (IC50), HeLa cells, luciferase, rounded to 2 digits
[11] = read-out: Notch 1 (IC50), HeLa cells, luciferase, rounded to 2 digits
[12] = Tamoxifen 20 mg/kg IP, Q2D × 10
[13] = Paclitaxel 12 mg/kg IV, Q7D x 6
[14] = Paclitaxel 12 mg/kg IV, Q7D x 6, target tumor size 500 mg
[15] = Dasatinib 10 mg/kg PO, QD x 49, target tumor size 1000 mg
[16] = Dexamethasone 3.75 mg/kg IP, QD x 14

In the case of NC(=O)[C@@H](CCC(F)(F)F)[C@@H](CCC(F)(F)F)C(=O)N[C@H]1N=C(c2ccccc2)c2ccccc2NC1=O [Example 2, (2R,3S)—N-((3S)-2-Oxo-5-phenyl-2,3-dihydro-1H-1,4-benzodiazepin-3-yl)-2,3-bis(3,3,3-trifluoropropyl)succinamide], the IC50 (Notch 3; [10]) is reported as 3.3 nM, the “Antitumor Activity TALL1 (LCK)” value [1] is reported as 2.4 LCK and the antitumor activity (human tumor xenografts) is reported as “showed antitumor activity”. For the same molecule, the “0.5 μM HLM (% Remaining)” value [2] was 88%, the “Antitumor Activity MDA-MB-468 (% TGI)” value ([3]; single agent, 24 mg/kg, oral, QD × 15, 10 Day-on-2 Day-off) was 87 % TGI and the IC50 (Notch 1; [11]) was 1.7 nM. For the same molecule, the “Antitumor Activity MDA-MB-157 (% TGI)” value [4] was 85 % TGI and the “0.5 μM MsLM (% Remaining)” value [5] was 86%.

In the case of CC/C(=C(\c1ccccc1)c1ccc(OCCN(C)C)cc1)c1ccccc1 [Tamoxifen, reference compound], the “CR (%)” value [6, 12] is reported as 0%, the “PR (%)” value [6, 12] is reported as 0% and the “Tumor Growth Inhibition TGI” value ([6]; Tamoxifen 20 mg/kg IP, Q2D × 10, target tumor size 500 mg) is reported as 78%. The “% TGI” value ([6]; Tamoxifen at MTD dose of 20 mg/kg/adm, IP, Q2 DX12) was 78% and the “CR or PR” value ([6]; single agent) was “no CR or PR”.

With N.N.O=C([O-])C1(C(=O)[O-])CCC1.[Pt+2] [Carboplatin, carboplatin, reference compound] the “antitumor effect (LCK)” value [7] was 2.1 LCK.

In the case of CC(=O)O[C@H]1C(=O)[C@@]2(C)[C@H]([C@H](OC(=O)c3ccccc3)[C@]3(O)C[C@H](OC(=O)[C@H](O)[C@@H](NC(=O)c4ccccc4)c4ccccc4)C(C)=C1C3(C)C)[C@]1(OC(C)=O)CO[C@@H]1C[C@@H]2O [Paclitaxel, paclitaxel, reference compound], the “CR (%)” value [3, 13] is reported as 0%, the “PR (%)” value [3, 13] is reported as 0% and the “Tumor Growth Delay” value [3, 14] is reported as 7.8 days. The “Tumor Growth Delay (LCK)” value [3, 14] was 0.5 LCK and the “antitumor effect (LCK)” value ([3]; paclitaxel weekly, 12 mg/kg/adm) was 0.5 LCK.

For Cc1nc(Nc2ncc(C(=O)Nc3c(C)cccc3Cl)s2)cc(N2CCN(CCO)CC2)n1 [Dasatinib, dasatinib, reference compound], the “CR (%)” value ([8]; Dasatinib 10 mg/kg PO, QD x 49) was 0%, the “PR (%)” value ([8]; Dasatinib 10 mg/kg PO, QD x 49) was 0% and the “Tumor Growth Delay” value [8, 15] was 30.2 days. For the same molecule, the “Tumor Growth Delay (LCK)” value [8, 15] was 1.7 LCK and the “antitumor effect (LCK)” value ([8]; dasatinib alone, 10 mg/kg/adm, QD×49, PO) was 1.7 LCK.

In the case of C[C@@H]1C[C@H]2[C@@H]3CCC4=CC(=O)C=C[C@]4(C)[C@@]3(F)[C@@H](O)C[C@]2(C)[C@@]1(O)C(=O)CO [Dexamethasone, dexamethasone, reference compound], the “CR (%)” value [9, 16] is reported as 0%, the “PR (%)” value [9, 16] is reported as 0% and the “Tumor Growth Delay” value [9, 16] is reported as 5.6 days. The “Tumor Growth Delay (LCK)” value [9, 16] was 0.6 LCK, the “Tumor Growth Delay” value ([9]; Dexamethasone […] IP, QD x 14) was 5.8 days and the “Tumor Growth Delay (LCK)” value ([9]; Dexamethasone […] IP, QD x 14) was 0.7 LCK. The “antitumor efficacy (LCK)” value ([9]; dexamethasone as a single agent at its MTD of 7.5 mpk) was 0.7 LCK.

In the case of NC(=O)[C@@H](CCC(F)(F)F)[C@@H](CCC(F)(F)F)C(=O)N[C@H]1N=C(c2ccccc2)c2cccc(F)c2NC1=O [Example 17, (2R,3S)—N-((3S)-9-fluoro-2-oxo-5-phenyl-2,3-dihydro-1H-1,4-benzodiazepin-3-yl)-2,3-bis(3,3,3-trifluoropropyl)succinamide], the IC50 (Notch 3; [10]) is reported as 7.1 nM, the “0.5 μM HLM (% Remaining)” value [2] is reported as 100% and the IC50 (Notch 1; [11]) is reported as 3.6 nM. The “0.5 μM MsLM (% Remaining)” value [5] was 96%.

For CN1C(=O)[C@@H](NC(=O)[C@H](CCC(F)(F)F)[C@H](CC(F)(F)F)C(N)=O)N=C(c2ccccc2)c2ccccc21 [Example 4, (2R,3S)—N-((3S)-1-Methyl-2-oxo-5-phenyl-2,3-dihydro-1H-1,4-benzodiazepin-3-yl)-3-(2,2,2-trifluoroethyl)-2-(3,3,3-trifluoropropyl)succinamide], the IC50 (Notch 3; [10]) was 2.5 nM, the “0.5 μM HLM (% Remaining)” value [2] was 100% and the IC50 (Notch 1; [11]) was 1.5 nM. For the same molecule, the “0.5 μM MsLM (% Remaining)” value [5] was 91%.

With COc1ccc2c(c1)NC(=O)[C@@H](NC(=O)[C@H](CCC(F)(F)F)[C@H](CCC(F)(F)F)C(N)=O)N=C2c1ccccc1 [Example 13, (2R,3S)—N-((3S)-8-methoxy-2-oxo-5-phenyl-2,3-dihydro-1H-1,4-benzodiazepin-3-yl)-2,3-bis(3,3,3-trifluoropropyl)succinamide] the IC50 (Notch 3; HeLa cells, luciferase, rounded to 2 digits, read-out: Notch 3 (IC50)) was 3.8 nM, the “0.5 μM HLM (% Remaining)” value [2] was 100% and the IC50 (Notch 1; HeLa cells, luciferase, rounded to 2 digits, read-out: Notch 1 (IC50)) was 2.1 nM. For the same molecule, the “0.5 μM MsLM (% Remaining)” value [5] was 97%.
